# Laboratory results as given in PubChem BioAssay (NCI).
#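 Interpolation was linear, between the two tested concentrations surrounding the appropriate level; five concentrations were tested over 48 hours in 96-well plates. At the GI50, growth is halved. The concentration for full growth arrest is given as TGI.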
# Legend:
# Test in all cases: DTP human tumour cell line panel, 48 h
# [1] = tested on: RPMI-8226 leukemia
# [2] = tested on: CAKI-1 renal
# [3] = tested on: NCI-H522 lung
# [4] = tested on: HCT-116 colon
# [5] = tested on: NCI-H226 lung
# [6] = tested on: OVCAR-4 ovarian
# [7] = tested on: K-562 leukemia
# [8] = tested on: EKVX NSCLC
# [9] = tested on: T-47D breast
SMILES,GI50 [1],TGI [1],GI50 [2],TGI [2],GI50 [3],TGI [3],GI50 [4],TGI [4],GI50 [5],TGI [5],GI50 [6],TGI [6],GI50 [7],TGI [7],GI50 [8],TGI [8],GI50 [9],TGI [9]
Cc1ccc2c(c1)Sc1c(ccc3ccccc13)N2,13.4 µM,> 100 µM,15.3 µM,> 100 µM,> 100 µM,> 100 µM,8.37 µM,> 100 µM,11.8 µM,> 100 µM,> 100 µM,> 100 µM,11.2 µM,> 100 µM,> 100 µM,> 100 µM,38.3 µM,> 100 µM
O=C(Nc1ccncc1)C(=O)c1cn(S(=O)(=O)c2cccc(F)c2)c2ccccc12,1.58 µM,> 100 µM,3.16 µM,> 100 µM,1.3 µM,15.7 µM,1.38 µM,> 100 µM,16.9 µM,> 100 µM,5.09 µM,> 100 µM,1.65 µM,> 100 µM,4.17 µM,> 100 µM,4.25 µM,> 100 µM
CCOC1Oc2ccc(C)cc2C(=O)/C1=C\Nc1ccc(C(N)=O)cc1 (centres undefined),18.6 µM,90.5 µM,20.6 µM,44.8 µM,20.8 µM,47.3 µM,13.4 µM,26.2 µM,24.3 µM,50.7 µM,99.8 µM,> 100 µM,22.6 µM,66.6 µM,25.8 µM,69 µM,6.13 µM,> 100 µM
C#CCNC(=O)c1cccc2c1cc(C)n2-c1nc2c(c(NCc3ccccc3)n1)CCCC2,0.0107 µM,0.0537 µM,0.0289 µM,0.176 µM,0.0251 µM,0.0808 µM,0.0109 µM,0.0378 µM,0.017 µM,0.0491 µM,0.022 µM,0.0709 µM,0.0179 µM,,0.028 µM,0.112 µM,0.0283 µM,0.117 µM
CC(C)(CO)N1CCN(C(=S)Nc2ccccc2)CC1,,> 100 µM,,> 100 µM,,> 100 µM,,> 100 µM,,> 100 µM,,> 100 µM,,99.5 µM,,> 100 µM,,> 100 µM
O=C(O)CCNC1CCCCC1,> 100 µM,> 100 µM,> 100 µM,> 100 µM,> 100 µM,> 100 µM,> 100 µM,> 100 µM,> 100 µM,> 100 µM,> 100 µM,> 100 µM,> 100 µM,> 100 µM,> 100 µM,> 100 µM,> 100 µM,> 100 µM
CC/C=C\C[C@H](F)C/C=C1/C(=O)C=C[C@@H]1C/C=C\CCCC(=O)O,1.22 µM,30.8 µM,6.52 µM,22.5 µM,4.58 µM,10.9 µM,1.34 µM,4.78 µM,8.8 µM,21 µM,7.76 µM,> 32.5 µM,2.18 µM,> 32.5 µM,7.59 µM,25.1 µM,6.37 µM,23.2 µM
CS(=O)(=O)c1ccc(-n2nc(C(F)(F)F)cc2OC2CCCC2)cc1,34.8 µM,> 100 µM,21.1 µM,54.4 µM,45.8 µM,> 100 µM,34.5 µM,> 100 µM,34 µM,> 100 µM,30.3 µM,> 100 µM,29.1 µM,92.6 µM,82.5 µM,> 100 µM,33 µM,> 100 µM
Cc1cc2c(cc1Cl)SC1=NN(C)S(=O)N1S2(=O)=O (centres undefined),> 100 µM,> 100 µM,> 100 µM,> 100 µM,> 100 µM,> 100 µM,> 100 µM,> 100 µM,> 100 µM,> 100 µM,> 100 µM,> 100 µM,> 100 µM,> 100 µM,> 100 µM,> 100 µM,> 100 µM,> 100 µM
CCN(CC)CCCC(C)Nc1c2ccc(Cl)cc2nc2ccc(O)cc12 (centres undefined),2.4 µM,6.76 µM,2.25 µM,6.1 µM,1.28 µM,3.71 µM,1.13 µM,3.08 µM,2.53 µM,8.99 µM,1.88 µM,4.66 µM,2.22 µM,8.94 µM,2.94 µM,11.6 µM,3 µM,11.6 µM
COc1cc2ncn(-c3cc(OCc4cccs4)c(C(N)=O)s3)c2cc1OC,3.24 µM,> 25 µM,8.49 µM,> 25 µM,0.924 µM,> 12.5 µM,1.68 µM,> 25 µM,7.13 µM,> 25 µM,7.97 µM,> 25 µM,1.14 µM,> 25 µM,7.93 µM,> 25 µM,6.4 µM,> 25 µM
C[N+]1=C(/C=C/c2ccc(O)c3ncccc23)C(C)(C)c2ccccc21,2.48 µM,10.3 µM,1.11 µM,3.83 µM,2.83 µM,11.6 µM,2.86 µM,10.5 µM,3.26 µM,12.9 µM,3.12 µM,17.2 µM,2.32 µM,> 100 µM,2.01 µM,7.16 µM,2.94 µM,14.2 µM
O=C(CCc1nnc2sc(-c3ccc(Cl)cc3Cl)nn12)c1nc2ccccc2[nH]1,0.422 µM,2.63 µM,2.22 µM,5.45 µM,0.755 µM,2.18 µM,0.247 µM,0.692 µM,0.663 µM,1.56 µM,0.639 µM,3.55 µM,0.451 µM,2.56 µM,1.93 µM,5.92 µM,0.916 µM,2.92 µM
